In ChEMBL document CHEMBL4354883, “Design, Synthesis, and Biological Evaluation of HSP90 Inhibitor-SN38 Conjugates for Targeted Drug Accumulation” (J Med Chem, 2020):
Values belong to the compound of their own block, whether it stands above or below them. Calls of active or inactive are those of the source. No cut-off for these calls is given here.

Assays:
Heat shock protein HSP90 [1] = target: T1, Heat shock protein HSP90 (Homo sapiens, UniProt P07900+P08238); test: Inhibition of HSP90 in human HCT116 cells assessed as downregulation of AKT protein expression after 24 hrs by Western blot analysis; format: cell-based
Heat shock protein HSP90 [2] = target: T1, Heat shock protein HSP90; test: Inhibition of HSP90 in human A549 cells assessed as upregulation of HSP70 expression at 0.2 to 5 uM after 24 hrs by Western blot analysis; format: cell-based
Heat shock protein HSP90 [3] = target: T1, Heat shock protein HSP90; test: Inhibition of HSP90 in human HCT116 cells assessed as upregulation of HSP70 expression at 0.2 to 5 uM after 24 hrs by Western blot analysis; format: cell-based
[4] = target: T2, DNA topoisomerase 1 (Homo sapiens) (UniProt P11387); test: Inhibition of topoisomerase 1 in human A549 cells assessed as increase in phosphorylated KAP1 expression at 0.2 to 5 uM after 24 hrs by Western blot analysis; format: cell-based
T2 sequence (whole entry): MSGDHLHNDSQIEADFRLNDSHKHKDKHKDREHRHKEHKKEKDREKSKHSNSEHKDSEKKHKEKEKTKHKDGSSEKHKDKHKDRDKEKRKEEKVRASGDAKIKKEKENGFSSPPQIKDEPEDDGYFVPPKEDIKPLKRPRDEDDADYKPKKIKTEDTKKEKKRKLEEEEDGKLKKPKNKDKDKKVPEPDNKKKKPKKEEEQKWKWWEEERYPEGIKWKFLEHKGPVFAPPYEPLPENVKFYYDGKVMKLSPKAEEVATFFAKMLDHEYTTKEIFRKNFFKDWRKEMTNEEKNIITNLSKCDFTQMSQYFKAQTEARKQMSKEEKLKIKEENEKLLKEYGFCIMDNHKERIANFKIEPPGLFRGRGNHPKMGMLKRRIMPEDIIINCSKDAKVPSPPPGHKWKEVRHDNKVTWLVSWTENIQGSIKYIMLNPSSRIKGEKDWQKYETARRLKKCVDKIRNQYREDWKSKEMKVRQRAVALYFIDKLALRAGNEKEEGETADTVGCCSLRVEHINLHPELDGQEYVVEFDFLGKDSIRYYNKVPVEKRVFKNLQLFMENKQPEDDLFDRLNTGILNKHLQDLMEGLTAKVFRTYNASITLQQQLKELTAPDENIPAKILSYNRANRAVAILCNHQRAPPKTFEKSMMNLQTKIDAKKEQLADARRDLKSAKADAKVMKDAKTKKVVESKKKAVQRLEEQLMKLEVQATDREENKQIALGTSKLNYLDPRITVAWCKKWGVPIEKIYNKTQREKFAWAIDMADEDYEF

[5] = target: T2, DNA topoisomerase 1 (Homo sapiens); test: Inhibition of topoisomerase 1 in human HCT116 cells assessed as increase in phosphorylated KAP1 expression at 0.2 to 5 uM after 24 hrs by Western blot analysis; format: cell-based
[6] = Drug uptake in tumor of mouse xenografted with human HCT116 cells at 50 mg/kg, iv administered as single dose after 1 hr by LC-MS/MS analysis; format: ADME, organism-based, Neoplasm; conditions: in vivo
Heat shock protein HSP90 [7] = target: T1, Heat shock protein HSP90; test: Inhibition of HSP90 in human A549 cells assessed as upregulation of HSP70 expression at 0.008 to 1 uM after 24 hrs by Western blot analysis; format: cell-based
[8] = Toxicity in lung of mouse xenografted with human Capan1 cells assessed as pathological changes at 50 mg/kg, iv for every 2 days measured at 2 hrs post-last dose by H and E staining based analysis; format: organism-based; conditions: in vivo
CAPAN-1 [9] = test: Antitumor activity against human Capan1 cells xenografted in mouse assessed as reduction in tumor volume at 50 mg/kg, iv for every 2 days and measured twice per week by microcaliper method relative to control; format: functional
[10] = Toxicity in mouse xenografted with human Capan1 cells assessed as increase in body weight at 50 mg/kg, iv for every 2 days; format: organism-based; conditions: in vivo, 48 h
[11] = Toxicity in heart of mouse xenografted with human Capan1 cells assessed as pathological changes at 50 mg/kg, iv for every 2 days measured at 2 hrs post last dose by H and E staining based analysis; format: organism-based; conditions: in vivo
[12] = Stability of compound in PBS buffer assessed as drug degradation at 50 uM at pH 7.4 measured after 12 hrs by HPLC analysis; format: physicochemical; conditions: read-out: Drug degradation
Heat shock protein HSP90 [13] = target: T1, Heat shock protein HSP90; test: Inhibition of HSP90 in human HCT116 cells assessed as downregulation of Akt expression at 0.008 to 1 uM after 24 hrs by Western blot analysis; format: cell-based
[14] = Drug uptake in human HL7702 cells in PBS solution at 5 uM after 6 hrs by confocal laser scanning microscopic analysis; format: ADME, cell-based; conditions: l02, 6 h
Mus musculus [15] = test: In vivo inhibition of HSP90 in mouse xenografted with human Capan1 cells assessed as increase in HSP70 protein expression at 50 mg/kg, iv for every 2 days measured at 2 hrs post last dose by Western blot analysis; format: functional, organism-based
[16] = Drug uptake in human HL7702 cells at 5 uM after 6 hrs in presence of HSP90 ATPase competitive inhibitor, NVP-AUY922 by confocal laser scanning microscopic analysis; format: ADME, cell-based; conditions: l02, 6 h
[17] = Prodrug release in mouse plasma xenografted with human Capan1 cells assessed as increase in 7-ethyl-10-hydroxycamptothecin level at 50 mg/kg, iv after 30 mins to 72 hrs by LC-MS/MS analysis; format: ADME, organism-based; conditions: in vivo
[18] = Toxicity in liver of mouse xenografted with human Capan1 cells assessed as pathological changes at 50 mg/kg, iv for every 2 days measured at 2 hrs post last dose by H and E staining based analysis; format: organism-based; conditions: in vivo
[19] = Drug uptake in tumor of mouse xenografted with human Capan1 cells assessed as retention time of the compound at 50 mg/kg, iv by LC-MS/MS analysis; format: ADME, organism-based, Neoplasm; conditions: in vivo
[20] = Drug uptake in tumor of mouse xenografted with human HCT116 cells at 50 mg/kg, iv administered as single dose measured up to 72 hrs by LC-MS/MS analysis; format: ADME, organism-based, Neoplasm; conditions: in vivo
[21] = Drug uptake in mouse plasma xenografted with human HCT116 cells assessed as increase in drug level with longer half life at 50 mg/kg, iv administered as single dose and measured after 30 mins to 72 hrs by LC-MS/MS analysis; format: ADME, organism-based; conditions: in vivo
[22] = Prodrug release in tumor of mouse xenografted with human HCT116 cells assessed as increase in 7-ethyl-10-hydroxycamptothecin level by measuring retention time at 50 mg/kg, iv administered as single dose by LC-MS/MS analysis; format: ADME, organism-based, Neoplasm; conditions: in vivo
Mus musculus [23] = test: In vivo inhibition of topoisomerase 1 in mouse xenografted with human Capan1 cells assessed as increase in phosphorylated KAP1 expression at 50 mg/kg, iv for every 2 days measured at 2 hrs post last dose by Western blot analysis; format: functional, organism-based
[24] = target: T2, DNA topoisomerase 1 (Homo sapiens); test: Inhibition of topoisomerase 1 in human HCT116 cells assessed as increase in phosphorylated KAP1 expression after 24 hrs by Western blot analysis; format: cell-based
[25] = Prodrug release in human A549 cells assessed as increase in 7-ethyl-10-hydroxycamptothecin level at 5 uM after 1 to 12 hrs by LC-MS/MS analysis; format: ADME, cell-based; conditions: a549, 5 µM
CAPAN-1 [26] = test: Antitumor activity against human Capan1 cells xenografted in mouse assessed as reduction in tumor weight at 50 mg/kg, iv for every 2 days and measured twice per week by caliper method; format: functional, organism-based

SMILES: CCc1c2c(nc3ccc(OC(=O)N4CCC(NC(=O)c5noc(-c6cc(C(C)C)c(O)cc6O)c5-c5ccc(CN6CCOCC6)cc5)CC4)cc13)-c1cc3c(c(=O)n1C2)COC(=O)[C@]3(O)CC
inhibition (Heat shock protein HSP90 [1]): Dose-dependent effect
inhibition (Heat shock protein HSP90 [2]): Active
inhibition (Heat shock protein HSP90 [3]): Active
inhibition [4]: inactive
inhibition [5]: inactive

Drug uptake [6]: Not Active
inhibition (Heat shock protein HSP90 [7]): inactive
degraded at 12 h, 50 µM [12]: 75%
inhibition (Heat shock protein HSP90 [13]): inactive
Drug uptake [14]: Not Active
Drug uptake [16]: Not Active
Drug metabolism [17]: Metabolite_Detected
Retention_time [19]: 72 h
Drug uptake [20]: Active
Drug uptake [21]: Active
Retention_time [22]: 72 h
inhibition [24]: Dose-dependent effect
Drug metabolism [25]: Metabolite_Detected
SMILES: CCc1c2c(nc3ccc(O)cc13)-c1cc3c(c(=O)n1C2)COC(=O)[C@@]3(CC)OC(=O)CNC(=O)c1noc(-c2cc(C(C)C)c(O)cc2O)c1-c1ccc(CN2CCOCC2)cc1
Activity [8]: Non-Toxic
T/C (CAPAN-1 [9]): 1.86%
Activity [10]: 10%
Activity [11]: Non-Toxic
inhibition (Mus musculus [15]): Active
Activity [18]: Non-Toxic
inhibition (Mus musculus [23]): Active
Activity (CAPAN-1 [26]): Active
